Test: Evaluation of the Tmax of Hydrochlorothiazide following oral administration of hydrochlorothiazide
Format: ADME, organism-based
Conditions: human, in vivo, dosed compound id 30, dosed compound name HYDROCHLOROTHIAZIDE, tissue Plasma

With `NS(=O)(=O)c1cc2c(cc1Cl)NCNS2(=O)=O` [HYDROCHLOROTHIAZIDE] the Tmax was 2 h.
